By IC50 is commonly meant the concentration at which inhibition is half-maximal.

For the assay, the target named is PDE1A (Homo sapiens, UniProt P54750). As to the kind of experiment: PDE1A dose response, Cyclic Nucleotide Phosphodiesterase Assay Kit from Biomol (colorimetric). Type of assay: biochemical. Particulars: purified PDE1A enzyme, 100 μM cAMP. The essentials:
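Purified PDE1A hydrolysed 100 μM cAMP with 5′-nucleotidase in Tris 20 mM pH 7.4 with calmodulin, Ca2+, Mg2+, 45 min at 37° C. Released phosphate read by malachite-green absorbance at 615 nm. Duplicate 8-point 1/3 dilutions from 20 μM, 1% DMSO; 10 μM vardenafil defined 100% inhibition.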
In turn, `CC(C)(C)c1csc(N2CC(c3nc4c(cnn4C4CCCCC4)c(=O)[nH]3)C2)n1` [Example 157, 6-(1-(4-tert-Butylthiazol-2-yl)azetidin-3-yl)-1-cyclohexyl-1H-pyrazolo[3,4-d]pyrimidin-4-(5H)-one] gave an IC50 of 101 to 500 nM. To `O=c1[nH]c(C2CN(c3nc(-c4ccccc4)co3)C2)nc2c1cnn2C1CCCCC1` [Example 132, 1-cyclohexyl-6-(1-(4-phenyloxazol-2-yl)azetidin-3-yl)-1H-pyrazolo[3,4-d]pyrimidin-4(5H)-one] belongs 1 to 100 nM; to `COc1ccccc1N1CC(c2nc3c(cnn3C3CCCCC3)c(=O)[nH]2)C1` [Example 169, 1-cyclohexyl-6-(1-(2-methoxyphenyl)azetidin-3-yl)-1H-pyrazolo[3,4-d]pyrimidin-4(5H)-one], 101 to 500 nM; to `O=c1[nH]c(C2CN(/C(=C\[N+](=O)[O-])NCC3CCCCC3)C2)nc2c1cnn2C1CCCCC1` [Example 180, 1-Cyclohexyl-6-(1-(1-(cyclohexylmethylamino)-2-nitrovinyl)azetidin-3-yl)-1H=pyrazolo[3,4-d]pyrimidin-4(5H)-one], 101 to 500 nM. In turn, `Cc1nn(C2CCCCC2)c2nc(C3CCCN(C(=O)c4cccn4C)C3)[nH]c(=O)c12` (centres unmarked) [Example 95, 1-cyclohexyl-3-methyl-6-(1-(1-methyl-1H-pyrrole-2-carbonyl)piperidin-3-yl)-1H-pyrazolo[3,4-d]pyrimidin-4(5H)-one] registered an IC50 of 501 to 1000 nM. Compound `O=c1[nH]c(C2CN(c3ccc(S(=O)(=O)N4CCOCC4)cc3)C2)nc2c1cnn2C1CCCCC1` [Example 145, 1-Cyclohexyl-6-(1-(4-(Morpholinosulfonyl)phenyl)azetidin-3-yl)-1H-pyrazolo[3,4-d]pyrimidin-4(5H)-one] registered a half-maximal inhibitory concentration (IC50) of 1 to 100 nM.

For the compound `O=C(NCC1CCCCC1)N1CC(c2nc3c(cnn3C3CCCCC3)c(=O)[nH]2)C1` [Example 5, 3-(1-cyclohexyl-4-oxo-4,5-dihydro-1H-pyrazolo[3,4-d]pyrimidin-6-yl)-N-(cyclohexylmethyl)azetidine-1-carboxamide], the half-inhibitory concentration (IC50) lay in the range of 1 to 100 nM. Compound `COc1ccccc1C(=O)N1CCCC(c2nc3c(cnn3C3CCCCC3)c(=O)[nH]2)C1` (centres unmarked) [Example 48, 1-cyclohexyl-6-(1-(2-methoxybenzoyl)piperidin-3-yl)-1H-pyrazolo[3,4-d]pyrimidin-4(5H)-one] displayed an IC50 of 101 to 500 nM. `Cc1nn(C2CCCCC2)c2nc(C3CCCN(C(=O)c4ccc(N(C)C)cc4)C3)[nH]c(=O)c12` (centres unmarked) [Example 59, 1-cyclohexyl-6-(1-(4-(dimethylamino)benzoyl)piperidin-3-yl)-3-methyl-1H-pyrazolo[3,4-d]pyrimidin-4(5H)-one] showed an IC50 of 101 to 500 nM. To `COc1ccccc1NC(=O)N1CCCC(c2nc3c(c(C)nn3C3CCCCC3)c(=O)[nH]2)C1` (centres unmarked) [Example 99, 3-(1-cyclohexyl-3-methyl-4-oxo-4,5-dihydro-1H-pyrazolo[3,4-d]pyrimidin-6-yl)-N-(2-methoxyphenyl)piperidine-1-carboxamide] belongs 1000 to 1500 nM. The compound `O=c1[nH]c(C2CN(c3ncc(Br)s3)C2)nc2c1cnn2C1CCCCC1` [Example 140, 6-(1-(5-bromothiazol-2-yl)azetidin-3-yl)-1-cyclohexyl-1H-pyrazolo[3,4-d]pyrimidin-4(5H)-one] displayed a half-inhibitory concentration (IC50) of 501 to 1000 nM.

In turn, `CC(C)N1CCN(c2ccc(-c3csc(N4CC(c5nc6c(cnn6C6CCCCC6)c(=O)[nH]5)C4)n3)cc2)CC1` [Example 161, 1-Cyclohexyl-6-(1-(4-(4-(4-isopropylpiperazin-1-yl)phenyl)thiazol-2-yl)azetidin-3-yl)-1H-pyrazolo[3,4-d]pyrimidin-4-(5H)-one] displayed an IC50 of 1 to 100 nM.

As for `Cc1nn(C2CCCCC2)c2nc(C3CCCN(C(=O)c4ccccc4NS(C)(=O)=O)C3)[nH]c(=O)c12` (centres unmarked) [Example 181, N-{2-[3-(1-Cyclohexyl-3-methyl-4-oxo-4,5-dihydro-1H-pyrazolo[3,4-d]pyrimidin-6-yl)-piperidine-1-carbonyl]phenyl}-methanesulfonamide], the IC50 is 501 to 1000 nM. The compound `N#C/N=C(/NCC1CCCCC1)N1CC(c2nc3c(cnn3C3CCCCC3)c(=O)[nH]2)C1` [Example 178, N′-Cyano-3-(1-cyclohexyl-4-oxo-4,5-dihydro-1H-pyrazolo[3,4-d]pyrimidin-6-yl)-N-(cyclohexylmethyl)azetidine-1-carboximidamide] registered an IC50 of 1 to 100 nM. For the compound `CN1CCN(Cc2cnc(N3CC(c4nc5c(cnn5C5CCCCC5)c(=O)[nH]4)C3)s2)CC1` [Example 137, 1-cyclohexyl-6-(1-(5-((4-methylpiperazin-1-yl)methyl)thiazol-2-yl)azetidin-3-yl)-1H-pyrazolo[3,4-d]pyrimidin-4(5H)-one], the 50% inhibitory concentration (IC50) fell in the range of 101 to 500 nM. To `O=c1[nH]c(C2CCCN(c3ccc(C(F)(F)F)cn3)C2)nc2c1cnn2C1CCCCC1` (centres unmarked) [Example 154, 1-cyclohexyl-6-(1-(5-(trifluoromethyl)pyridin-2-yl)piperidin-3-yl)-1H-pyrazolo[3,4-d]pyrimidin-4(5H)-one] belongs 1000 to 1500 nM. To `O=c1[nH]c(C2CN(c3nc4ccccc4[nH]3)C2)nc2c1cnn2C1CCCCC1` [Example 125, 1-Cyclohexyl-6-(1-(1H-benzo[d]imidazol-2-yl)azetidin-3-yl)-1H-pyrazolo[3,4-d]pyrimidin-4-(5H)-one] belongs 1 to 100 nM; to `Cn1c(CN2CC(c3nc4c(cnn4C(C)(C)C)c(=O)[nH]3)C2)nc2ccccc21` [Example 171, 1-tert-Butyl-6-(1-((1-methyl-1H-benzo[d]imidazol-2-yl)methyl)azetidin-3-yl)-1H-pyrazolo[3,4-d]pyrimidin-4(5H)-one], 501 to 1000 nM; to `COc1cccc(C(=O)N2CCCC(c3nc4c(c(C)nn4C4CCCCC4)c(=O)[nH]3)C2)c1` (centres unmarked) [Example 71, 1-cyclohexyl-6-(1-(3-methoxybenzoyl)piperidin-3-yl)-3-methyl-1H-pyrazolo[3,4-d]pyrimidin-4(5H)-one], 101 to 500 nM. To `CN1CCN(c2ccc3[nH]c(N4CC(c5nc6c(cnn6C(C)(C)C)c(=O)[nH]5)C4)nc3c2)CC1` [Example 144, 1-tert-butyl-6-(1-(5-(4-methylpiperazin-1-yl)-1H-benzo[d]imidazol-2-yl)azetidin-3-yl)-1H-pyrazolo[3,4-d]pyrimidin-4(5H)-one] belongs 101 to 500 nM; to `O=c1[nH]c(C2CN(c3ccccc3CN3CCOCC3)C2)nc2c1cnn2C1CCCCC1` [Example 156, 1-Cyclohexyl-6-(1-(2-(morpholinomethyl)phenyl)azetidin-3-yl)-1H-pyrazolo[3,4-d]pyrimidin-4(5H)-one], 101 to 500 nM; to `O=c1[nH]c(C2CN(c3ncc(-c4ccccc4)s3)C2)nc2c1cnn2C1CCCCC1` [Example 160, 1-Cyclohexyl-6-(1-(5-phenylthiazol-2-yl)azetidin-3-yl)-1H-pyrazolo[3,4-d]pyrimidin-4-(5H)-one], 101 to 500 nM. `COc1cccc(C(=O)N2CCCC(c3nc4c(cnn4-c4ccccc4)c(=O)[nH]3)C2)c1` (centres unmarked) [Example 68, 6-(1-(3-methoxybenzoyl)piperidin-3-yl)-1-phenyl-1H-pyrazolo[3,4-d]pyrimidin-4(5H)-one] showed an IC50 of 101 to 500 nM. To `CCc1nn(C2CCCCC2)c2nc(C3CN(C(=O)Nc4ccccc4OC(F)F)C3)[nH]c(=O)c12` [Example 114, 3-(1-cyclohexyl-3-ethyl-4-oxo-4,5-dihydro-1H-pyrazolo[3,4-d]pyrimidin-6-yl)-N-(2-(difluoromethoxy)phenyl)azetidine-1-carboxamide] belongs 501 to 1000 nM. To `O=C(Nc1cccc(Cl)c1)N1CC(c2nc3c(cnn3C3CCCCC3)c(=O)[nH]2)C1` [Example 8, N-(3-chlorophenyl)-3-(1-cyclohexyl-4-oxo-4,5-dihydro-1H-pyrazolo[3,4-d]pyrimidin-6-yl)azetidine-1-carboxamide] belongs 1 to 100 nM; to `CCCCS(=O)(=O)Nc1cccc(C(=O)N2CCCC(c3nc4c(c(C)nn4C4CCCCC4)c(=O)[nH]3)C2)c1` (centres unmarked) [Example 55, N-(3-(3-(1-cyclohexyl-3-methyl-4-oxo-4,5-dihydro-1H-pyrazolo[3,4-d]pyrimidin-6-yl)piperidine-1-carbonyl)phenyl)butane-1-sulfonamide], 101 to 500 nM. On to `O=C(c1ccccc1OC(F)(F)F)N1CCCC(c2nc3c(cnn3C3CCCCC3)c(=O)[nH]2)C1` (centres unmarked) [Example 54, 1-cyclohexyl-6-(1-(2-(trifluoromethoxy)benzoyl)piperidin-3-yl)-1H-pyrazolo[3,4-d]pyrimidin-4(5H)-one], for which the half-inhibitory concentration (IC50) is 101 to 500 nM. To `CC(C)(C)n1ncc2c(=O)[nH]c(C3CN(c4nc5ccc(Br)cc5[nH]4)C3)nc21` [Example 126, 6-(1-(6-bromo-1H-benzo[d]imidazol-2-yl)azetidin-3-yl)-1-tert-butyl-1H-pyrazolo[3,4-d]pyrimidin-4(5H)-one] belongs 1 to 100 nM; to `Cc1ccc(NC(=O)N2CC(c3nc4c(cnn4C4CCCCC4)c(=O)[nH]3)C2)cc1C` [Example 4, 3-(1-cyclohexyl-4-oxo-4,5-dihydro-1H-pyrazolo[3,4-d]pyrimidin-6-yl)-N-(3,4-dimethylphenyl)azetidine-1-carboxamide], 1 to 100 nM; to `COc1ccc(OC)c(S(=O)(=O)N2CCCC(c3nc4c(cnn4C4CCCCC4)c(=O)[nH]3)C2)c1` (centres unmarked) [Example 63, 1-cyclohexyl-6-(1-(2,5-dimethoxyphenylsulfonyl)piperidin-3-yl)-1H-pyrazolo[3,4-d]pyrimidin-4(5H)-one], 101 to 500 nM. With `Cc1nn(C(C)(C)C)c2nc(C3CN(C(=O)NCc4ccccc4)C3)[nH]c(=O)c12` [Example 22, N-benzyl-3-(1-tert-butyl-3-methyl-4-oxo-4,5-dihydro-1H-pyrazolo[3,4-d]pyrimidin-6-yl)azetidine-1-carboxamide], the half-inhibitory concentration (IC50) lay in the range of 1 to 100 nM. To `CC(C)N1CCC(CNC(=O)N2CC(c3nc4c(cnn4C4CCCCC4)c(=O)[nH]3)C2)CC1` [Example 184, 3-(1-Cyclohexyl-4-oxo-4,5-dihydro-1H-pyrazolo[3,4-d]pyrimidin-6-yl)-N-((1-isopropylpiperidin-4-yl)methyl)azetidine-1-carboxamide] belongs 501 to 1000 nM.
